Test results from patent publication US20250214991A1 (Oncopia Therapeutics, Inc. d/b/a/ SK Life Science Labs, priority 2022, published 2025).

Experiments:
[1] = target: CRBN/DDB1 (Homo sapiens (Human), UniProt Q96SW2); assay: IC50 measurements for binding to CRBN/DDB1 (HTRF); details: His tagged CRBN+DDB, Cy5-labeled Thalidomide probe, one hour
In short: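 HTRF competition binding with 2 nM His-tagged CRBN-DDB1 complex, 60 nM Cy5-thalidomide probe and 0.4 nM anti-His Tb cryptate in 50 mM HEPES pH 7.5, 1 mM TCEP, 0.01% Brij-35, 50 mM NaCl, 0.1% BSA. Read after 1 h at room temperature; IC50 from four-parameter dose-response fit.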

[2] = target: T1, IKZF2 (Homo sapiens (Human), UniProt Q96SW2+Q9UKS7); assay: In vitro IKZF2 Western Blot Assay in Jurkat cells; assay type: cell-based; details: 24 hrs
T1 sequence (Q9UKS7 whole entry): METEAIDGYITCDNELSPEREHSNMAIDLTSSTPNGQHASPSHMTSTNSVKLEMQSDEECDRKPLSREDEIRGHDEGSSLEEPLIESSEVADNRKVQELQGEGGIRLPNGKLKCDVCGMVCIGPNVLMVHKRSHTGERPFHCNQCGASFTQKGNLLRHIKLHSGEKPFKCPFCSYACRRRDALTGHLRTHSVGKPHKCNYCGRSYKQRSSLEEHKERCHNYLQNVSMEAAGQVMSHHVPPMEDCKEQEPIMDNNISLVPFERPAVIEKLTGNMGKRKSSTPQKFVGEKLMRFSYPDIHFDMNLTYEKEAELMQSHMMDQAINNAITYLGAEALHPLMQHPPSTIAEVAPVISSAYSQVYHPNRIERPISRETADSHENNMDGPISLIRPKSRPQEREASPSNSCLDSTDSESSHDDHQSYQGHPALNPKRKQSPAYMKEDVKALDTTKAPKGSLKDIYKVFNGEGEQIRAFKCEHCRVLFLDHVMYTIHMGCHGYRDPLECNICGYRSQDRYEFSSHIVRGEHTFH
T1 sequence (Q96SW2 whole entry): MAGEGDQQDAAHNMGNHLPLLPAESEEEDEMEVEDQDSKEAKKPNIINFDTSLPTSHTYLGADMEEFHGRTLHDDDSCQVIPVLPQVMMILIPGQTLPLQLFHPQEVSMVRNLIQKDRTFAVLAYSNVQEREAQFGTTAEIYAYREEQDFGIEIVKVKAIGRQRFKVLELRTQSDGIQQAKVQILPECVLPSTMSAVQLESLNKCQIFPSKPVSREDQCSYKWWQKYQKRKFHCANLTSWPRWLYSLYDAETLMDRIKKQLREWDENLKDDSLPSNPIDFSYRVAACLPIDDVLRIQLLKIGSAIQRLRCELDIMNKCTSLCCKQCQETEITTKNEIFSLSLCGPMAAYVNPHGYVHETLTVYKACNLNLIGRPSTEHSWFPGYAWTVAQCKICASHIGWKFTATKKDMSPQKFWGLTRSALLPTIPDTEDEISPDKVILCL
T1 sequence (Q16531 2-1140 partner): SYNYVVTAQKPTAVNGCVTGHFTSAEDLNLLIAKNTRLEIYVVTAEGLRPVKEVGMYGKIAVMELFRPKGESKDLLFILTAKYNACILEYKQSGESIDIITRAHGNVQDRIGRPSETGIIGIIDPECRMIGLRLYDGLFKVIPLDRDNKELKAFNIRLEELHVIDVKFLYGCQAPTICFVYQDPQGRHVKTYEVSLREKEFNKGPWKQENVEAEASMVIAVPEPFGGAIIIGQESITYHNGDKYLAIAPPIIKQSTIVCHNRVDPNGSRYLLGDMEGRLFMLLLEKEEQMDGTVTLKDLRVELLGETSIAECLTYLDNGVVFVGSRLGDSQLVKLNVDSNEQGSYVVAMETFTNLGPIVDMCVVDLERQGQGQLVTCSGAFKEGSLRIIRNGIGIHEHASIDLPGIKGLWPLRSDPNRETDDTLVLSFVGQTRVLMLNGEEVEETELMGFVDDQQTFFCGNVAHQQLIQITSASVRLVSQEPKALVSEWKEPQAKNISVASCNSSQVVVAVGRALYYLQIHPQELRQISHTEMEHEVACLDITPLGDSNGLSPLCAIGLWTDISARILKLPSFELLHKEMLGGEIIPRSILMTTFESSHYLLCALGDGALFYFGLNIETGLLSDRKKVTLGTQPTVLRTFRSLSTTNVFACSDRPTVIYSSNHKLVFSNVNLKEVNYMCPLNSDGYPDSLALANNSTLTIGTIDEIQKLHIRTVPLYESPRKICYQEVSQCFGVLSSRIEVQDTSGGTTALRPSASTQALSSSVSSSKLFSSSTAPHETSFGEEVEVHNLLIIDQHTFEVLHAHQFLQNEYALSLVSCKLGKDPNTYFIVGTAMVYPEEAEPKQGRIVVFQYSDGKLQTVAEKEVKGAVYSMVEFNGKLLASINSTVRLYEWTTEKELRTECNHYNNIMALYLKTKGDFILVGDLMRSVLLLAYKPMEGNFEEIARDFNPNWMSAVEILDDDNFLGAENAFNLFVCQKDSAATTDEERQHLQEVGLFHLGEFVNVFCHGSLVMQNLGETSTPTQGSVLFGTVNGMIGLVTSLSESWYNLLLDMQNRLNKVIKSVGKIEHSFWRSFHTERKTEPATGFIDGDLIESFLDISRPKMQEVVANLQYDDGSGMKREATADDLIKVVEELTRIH
Method: In vitro IKZF2 Western Blot Assay Jurkat cells (ATCC, Cat #HB-8065) were cultured in RPMI1640+10% FBS+1% P/S. Cells were treated at desired compound concentrations (0.001, 0.01, 0.1, 1, and 10 μM) and DMSO as vehicle control for 24 hrs. After 24 hr of treatment cells were collected by centrifugation and lysed in RIPA lysis buffer on ice for 10 min. After assessing protein concentration by BCA assay (Pierce), equal amounts of protein for each sample were loaded into 4-12% Bis-Tris gels (Invitrogen), transferred to PVDF membranes and immunoblotted with antibodies against IKZF2 and Actin (Cell Signaling). Membranes were developed on an Odyssey detection system (LI-COR Biosciences) after incubation with IRDye800-labeled goat anti-rabbit IgG and IRDye680-labeled goat anti-mouse IgG (LI-COR) secondary antibodies. Band intensities were quantified using ImageStudio software. Data was further analyzed using XLfit. Percentage of IKZF2 protein degradation: A (>50%); B (30-50%); C(<30%) (Table 2).

[3] = target: T1, IKZF2; assay: In vitro IKZF2 FACS Assay in Jurkat cells; assay type: cell-based; details: 24 hrs; for DC50: half maximal degradation concentration; for Dmax: maximal degradation percentage
Method: In vitro IKZF2 FACS Assay
DC50, A: <1 nM; B: 1-10 nM; C: 10-100 nM; D: 100-1000 nM; E: >1000 nM. Dmax, A: >80%; B: 60-80%; C: 40-60%; D: 20-40%; E: <20%.

[4] = target: T1, IKZF2; assay: In vitro IKZF2 HiBit Assay (HEK293T Flp-in-HiBiT cells); assay type: cell-based; details: HEK293T Flp-in-HiBiT cells, 6 hrs incubation; for DC50: read-out: IKZF2 HiBit DC50; for Dmax: HEK-293T, read-out: IKZF2 HiBit Dmax (%)
In short: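 HEK293T Flp-in cells carrying an endogenous N-terminal HiBiT tag on IKZF2 were exposed to compound for 6 h at 0.1% DMSO. The dilution series was 11 doses at 3-fold, diluted from 1 mM. Nano-Glo HiBiT lytic luminescence, normalized to DMSO, gave DC50 for 50% degradation and Dmax across the concentration range, both reported in letter bins.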

[5] = target: IKZF1 (Homo sapiens (Human), UniProt Q13422+Q96SW2); assay: In vitro IKZF1 HiBit Assay (HEK293T Flp-in-HiBiT-IKZF1 stable cell line); assay type: cell-based; details: HEK293T Flp-in-HiBiT-IKZF1 stable cell line, 6 hrs incubation; for DC50: read-out: IKZF1 HiBit DC50; for Dmax: HEK-293T, read-out: IKZF1 HiBit Dmax (%)
Chain of IKZF1 (Q13422 whole entry): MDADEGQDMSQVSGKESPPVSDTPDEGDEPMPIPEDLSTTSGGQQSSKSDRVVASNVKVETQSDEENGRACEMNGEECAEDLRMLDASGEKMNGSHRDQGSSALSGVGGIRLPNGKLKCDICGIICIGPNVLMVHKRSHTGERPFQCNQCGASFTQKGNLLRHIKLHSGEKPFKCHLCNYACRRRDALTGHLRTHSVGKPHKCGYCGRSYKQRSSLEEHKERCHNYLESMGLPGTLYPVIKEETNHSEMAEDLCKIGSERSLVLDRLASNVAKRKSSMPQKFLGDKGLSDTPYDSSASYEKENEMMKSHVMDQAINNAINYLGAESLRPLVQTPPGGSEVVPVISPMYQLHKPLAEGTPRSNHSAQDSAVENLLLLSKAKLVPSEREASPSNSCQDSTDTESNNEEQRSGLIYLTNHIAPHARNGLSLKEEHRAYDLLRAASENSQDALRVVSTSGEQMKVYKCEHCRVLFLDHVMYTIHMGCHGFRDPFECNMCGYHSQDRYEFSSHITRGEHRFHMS
Chain of IKZF1 (Q96SW2 whole entry): as the sequence (Q96SW2 whole entry) above
Chain of IKZF1 (Q16531 2-1140 partner): as the sequence (Q16531 2-1140 partner) above
In short: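 HEK293T Flp-in cells carrying N-terminal HiBiT-tagged IKZF1 were exposed to compound (0.1% DMSO) for 6 h at 3000 cells/well. HiBiT luminescence was read after lytic LgBiT detection. DC50 and Dmax were taken from DMSO-normalized dose-response curves.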

Chain of CRBN/DDB1 (Q96SW2 whole entry, species assumed): as the sequence (Q96SW2 whole entry) above
Chain of CRBN/DDB1 (Q16531 whole entry partner, species assumed): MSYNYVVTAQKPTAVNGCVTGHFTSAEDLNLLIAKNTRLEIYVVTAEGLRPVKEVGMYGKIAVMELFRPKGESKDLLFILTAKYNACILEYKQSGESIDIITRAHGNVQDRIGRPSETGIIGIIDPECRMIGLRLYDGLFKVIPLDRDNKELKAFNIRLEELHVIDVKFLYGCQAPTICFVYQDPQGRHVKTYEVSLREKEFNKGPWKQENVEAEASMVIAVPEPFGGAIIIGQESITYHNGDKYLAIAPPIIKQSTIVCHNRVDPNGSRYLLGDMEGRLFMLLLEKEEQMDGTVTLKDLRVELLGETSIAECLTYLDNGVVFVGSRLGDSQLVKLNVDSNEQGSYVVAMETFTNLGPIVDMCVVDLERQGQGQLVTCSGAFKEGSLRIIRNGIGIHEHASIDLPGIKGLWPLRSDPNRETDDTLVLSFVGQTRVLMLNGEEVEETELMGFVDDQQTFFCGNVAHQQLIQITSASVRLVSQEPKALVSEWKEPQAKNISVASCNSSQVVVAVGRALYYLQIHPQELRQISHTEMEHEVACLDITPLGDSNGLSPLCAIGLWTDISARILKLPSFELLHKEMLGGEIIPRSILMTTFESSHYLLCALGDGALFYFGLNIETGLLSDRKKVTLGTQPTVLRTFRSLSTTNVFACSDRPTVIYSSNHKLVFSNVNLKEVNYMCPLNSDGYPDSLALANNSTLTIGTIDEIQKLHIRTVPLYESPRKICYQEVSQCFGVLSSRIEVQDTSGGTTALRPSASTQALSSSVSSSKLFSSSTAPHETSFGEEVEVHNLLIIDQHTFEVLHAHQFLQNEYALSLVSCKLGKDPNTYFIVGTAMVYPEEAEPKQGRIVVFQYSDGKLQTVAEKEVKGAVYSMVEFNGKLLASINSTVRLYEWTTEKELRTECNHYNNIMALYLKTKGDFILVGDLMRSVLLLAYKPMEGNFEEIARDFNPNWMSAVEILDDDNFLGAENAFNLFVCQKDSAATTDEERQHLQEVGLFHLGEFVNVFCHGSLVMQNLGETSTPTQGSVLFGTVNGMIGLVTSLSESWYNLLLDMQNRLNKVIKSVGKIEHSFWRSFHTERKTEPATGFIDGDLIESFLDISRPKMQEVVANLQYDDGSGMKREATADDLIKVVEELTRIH

SMILES | IC50 [1] | inhibition at 0.001 µM ([2]; 0.001 μM, read-out: IKZF2 degradation (%) @ μM 0.001) | inhibition at 0.01 µM ([2]; 0.01 μM, read-out: IKZF2 degradation (%) @ μM 0.01) | inhibition at 0.1 µM ([2]; 0.1 μM, read-out: IKZF2 degradation (%) @ μM 0.1) | inhibition at 1 µM ([2]; 1 μM, read-out: IKZF2 degradation (%) @ μM 1) | inhibition at 10 µM ([2]; 10 μM, read-out: IKZF2 degradation (%) @ μM 10) | DC50 [3] | Dmax [3] | DC50 [4] | Dmax [4] | DC50 [5] | Dmax [5]
O=C1CCC(N2Cc3cc(-c4cc(CNCCc5ccccc5Cl)cc5cncn45)ccc3C2=O)C(=O)N1 (centres unmarked) [Example 21, 3-(5-(7-(((2-chlorophenethyl)amino)methyl)imidazo[1,5-a]pyridin-5-yl)-1-oxoisoindolin-2-yl) piperidine-2,6-dione] | 0.1 to 0.5 µM | 30 to 50% | > 50% | > 50% | > 50% | > 50% | – | – | – | – | – | –
O=C1CCC(N2Cc3cc(-c4nc5[nH]ccc5c(CN5CCCC5)c4Cl)ccc3C2=O)C(=O)N1 (centres unmarked) [Example 221, 3-(5-(5-chloro-4-(pyrrolidin-1-ylmethyl)-1H-pyrrolo[2,3-b]pyridin-6-yl)-1-oxoisoindolin-2-yl) piperidine-2,6-dione] | 0.1 to 0.5 µM | – | – | – | – | – | 0.001 to 0.01 µM | > 80% | 0.001 to 0.01 µM | > 80% | > 10 µM | < 20%
O=C1CCC(N2Cc3c(ccc(-c4cc(CN5CCCC5)c5ccn(C6CS(=O)(=O)C6)c5n4)c3F)C2=O)C(=O)N1 (centres unmarked) [Example 222, 3-(5-(1-(1,1-dioxidothietan-3-yl)-4-(pyrrolidin-1-ylmethyl)-1H-pyrrolo[2,3-b]pyridin-6-yl)-4-fluoro-1-oxoisoindolin-2-yl) piperidine-2,6-dione] | 0.1 to 0.5 µM | – | – | – | – | – | 0.001 to 0.01 µM | > 80% | 0.001 to 0.01 µM | > 80% | 0.01 to 0.1 µM | 20 to 40%
O=C1CCC(N2Cc3c(ccc(-c4cc(CN5CCCC5)c5ccn(C6COC6)c5n4)c3F)C2=O)C(=O)N1 (centres unmarked) [Example 223, 3-(4-fluoro-5-(1-(oxetan-3-yl)-4-(pyrrolidin-1-ylmethyl)-1H-pyrrolo[2,3-b]pyridin-6-yl)-1-oxoisoindolin-2-yl) piperidine-2,6-dione] | 0.1 to 0.5 µM | – | – | – | – | – | 0.001 to 0.01 µM | > 80% | < 0.001 µM | 60 to 80% | 0.001 to 0.01 µM | 20 to 40%
CC(C)Nc1n[nH]c2c(CN3CCCC3)cc(-c3ccc4c(c3F)CN(C3CCC(=O)NC3=O)C4=O)nc12 (centres unmarked) [Example 226, 3-(4-fluoro-5-(3-(isopropylamino)-7-(pyrrolidin-1-ylmethyl)-1H-pyrazolo[4,3-b]pyridin-5-yl)-1-oxoisoindolin-2-yl) piperidine-2,6-dione] | 0.1 to 0.5 µM | – | – | – | – | – | 0.001 to 0.01 µM | > 80% | < 0.001 µM | > 80% | > 10 µM | < 20%
CC(C)Nc1n[nH]c2c(CN3CCCC3)cc(-c3ccc4c(c3Cl)CN(C3CCC(=O)NC3=O)C4=O)nc12 (centres unmarked) [Example 227, 3-(4-chloro-5-(3-(isopropylamino)-7-(pyrrolidin-1-ylmethyl)-1H-pyrazolo[4,3-b]pyridin-5-yl)-1-oxoisoindolin-2-yl) piperidine-2,6-dione] | 0.5 to 1 µM | – | – | – | – | – | 0.01 to 0.1 µM | > 80% | 0.001 to 0.01 µM | 60 to 80% | > 10 µM | < 20%
O=C1CCC(N2Cc3c(ccc(-c4cc(CN5CCCC5)c5ccn(C6COC6)c5n4)c3Cl)C2=O)C(=O)N1 (centres unmarked) [Example 228, 3-(4-chloro-5-(1-(oxetan-3-yl)-4-(pyrrolidin-1-ylmethyl)-1H-pyrrolo[2,3-b]pyridin-6-yl)-1-oxoisoindolin-2-yl) piperidine-2,6-dione] | 0.1 to 0.5 µM | – | – | – | – | – | 0.01 to 0.1 µM | 60 to 80% | 0.001 to 0.01 µM | 60 to 80% | > 10 µM | < 20%
Cn1ccc2c(CN3CCCC3)c(Cl)c(-c3ccc4c(c3)CN(C3CCC(=O)NC3=O)C4=O)nc21 (centres unmarked) [Example 229, 3-(5-(5-chloro-1-methyl-4-(pyrrolidin-1-ylmethyl)-1H-pyrrolo[2,3-b]pyridin-6-yl)-1-oxoisoindolin-2-yl) piperidine-2,6-dione] | 0.1 to 0.5 µM | – | – | – | – | – | 0.001 to 0.01 µM | 60 to 80% | 0.001 to 0.01 µM | 60 to 80% | > 10 µM | < 20%
O=C1CCC(N2Cc3c(ccc(-c4cc(CN5CCCC5)c5ccn(C6CS(=O)(=O)C6)c5n4)c3Cl)C2=O)C(=O)N1 (centres unmarked) [Example 230, 3-(4-chloro-5-(1-(1,1-dioxidothietan-3-yl)-4-(pyrrolidin-1-ylmethyl)-1H-pyrrolo[2,3-b]pyridin-6-yl)-1-oxoisoindolin-2-yl) piperidine-2,6-dione] | 0.1 to 0.5 µM | – | – | – | – | – | 0.001 to 0.01 µM | > 80% | 0.001 to 0.01 µM | 60 to 80% | > 10 µM | < 20%
CC(C)Oc1ccnc2c(CN3CCCC3)cc(-c3ccc4c(c3)CN(C3CCC(=O)NC3=O)C4=O)nc12 (centres unmarked) [Example 232, 3-(5-(8-isopropoxy-4-(pyrrolidin-1-ylmethyl)-1,5-naphthyridin-2-yl)-1-oxoisoindolin-2-yl) piperidine-2,6-dione] | 0.5 to 1 µM | – | – | – | – | – | 0.01 to 0.1 µM | 60 to 80% | 0.001 to 0.01 µM | 60 to 80% | > 10 µM | < 20%
CC(C)Nc1ccnc2c(CN3CCCC3)cc(-c3ccc4c(c3)CN(C3CCC(=O)NC3=O)C4=O)nc12 (centres unmarked) [Example 236, 3-(5-(8-(isopropylamino)-4-(pyrrolidin-1-ylmethyl)-1,5-naphthyridin-2-yl)-1-oxoisoindolin-2-yl) piperidine-2,6-dione] | 1 to 5 µM | – | – | – | – | – | > 1 µM | < 20% | 0.01 to 0.1 µM | 20 to 40% | > 10 µM | < 20%
CN(C)c1ccnc2c(CN3CCCC3)cc(-c3ccc4c(c3)CN(C3CCC(=O)NC3=O)C4=O)nc12 (centres unmarked) [Example 237, 3-(5-(8-(dimethylamino)-4-(pyrrolidin-1-ylmethyl)-1,5-naphthyridin-2-yl)-1-oxoisoindolin-2-yl) piperidine-2,6-dione] | 1 to 5 µM | – | – | – | – | – | 0.01 to 0.1 µM | 40 to 60% | 0.01 to 0.1 µM | 60 to 80% | 0.001 to 0.01 µM | 20 to 40%
O=C1CCC(N2Cc3cc(-c4cc(CN5CCCC5)c5nccc(OC6CCC6)c5n4)ccc3C2=O)C(=O)N1 (centres unmarked) [Example 239, 3-(5-(8-cyclobutoxy-4-(pyrrolidin-1-ylmethyl)-1,5-naphthyridin-2-yl)-1-oxoisoindolin-2-yl) piperidine-2,6-dione] | 1 to 5 µM | – | – | – | – | – | 0.01 to 0.1 µM | 60 to 80% | 0.001 to 0.01 µM | 60 to 80% | > 10 µM | < 20%
O=C1CCC(N2Cc3cc(-c4cc(CN5CCCC5)c5[nH]ncc5n4)ccc3C2=O)C(=O)N1 (centres unmarked) [Example 307, 3-(1-oxo-5-(7-(pyrrolidin-1-ylmethyl)-1H-pyrazolo[4,3-b]pyridin-5-yl)isoindolin-2-yl) piperidine-2,6-dione] | 0.1 to 0.5 µM | – | – | – | – | – | 0.001 to 0.01 µM | > 80% | 0.001 to 0.01 µM | > 80% | 1 to 10 µM | 20 to 40%
Cn1cc2nc(-c3ccc4c(c3)CN(C3CCC(=O)NC3=O)C4=O)cc(CN3CCCC3)c2n1 (centres unmarked) [Example 314, 3-(5-(2-methyl-7-(pyrrolidin-1-ylmethyl)-2H-pyrazolo[4,3-b]pyridin-5-yl)-1-oxoisoindolin-2-yl) piperidine-2,6-dione] | 0.1 to 0.5 µM | – | – | – | – | – | 0.001 to 0.01 µM | > 80% | 0.001 to 0.01 µM | > 80% | 0.01 to 0.1 µM | 20 to 40%
